According to patent US7592330B2, “Methods and compositions for preserving the viability of photoreceptor cells” (Massachusetts Eye and Ear Infirmary, priority 2005, dated 2009):

Columns and labels:
photoreceptor cells [1] = type: in vivo, Brown Norway rats
Experimental: Methods. Retinal detachments were created in the eyes of Brown Norway rats by injecting 10% hyaluronic acid into the subretinal space using a transvitreal approach. FK506 (tacrolimus) (5 mg/kg/day) diluted in PBS was administered by gastric gavage one day prior to the induction of retinal detachment, on the day of the induction, and for the two following days (n=6). Control animals received the same volume of PBS (0.5 cc) by gastric gavage one day prior to the induction of retinal detachment, on the day of the induction, and for the two following days (n=3). […] All eyes were enucleated 72 hours after retinal detachment induction and embedded in paraffin. Fourteen micrometer sections were subsequently obtained. DNA fragmentation was examined using terminal dUTP-biotin nick end-labeling (TUNEL). A masked observer counted TUNEL-positive cells and obtained an average from three adjacent standardized fields in two serial sections.

[2] = tested on: calpain-mediated cleavage of calcineurin; test: ALLM treatment in experimental retinal detachment, Western blot of calcineurin cleavage (Example 4, Experiment #2); type: in vivo, Brown Norway rats
From the text: The following experiments determine that calcineurin is cleaved after retinal detachment and that pharmacologic inhibition of calpain will prevent this activation. In particular, retinas of rats with experimental retinal detachment will be examined for biochemical evidence of calcineurin activation. These experiments also determine that calcineurin cleavage is mediated by the calcium-dependent enzyme, calpain. […] Finally, they determine that calcineurin inhibitors like FK506 have a neuroprotective effect on photoreceptor cells death.
One day prior to surgical induction, animals are started on a treatment of ALLM (20 mg/kg/day, intraperitoneal administration), a calpain inhibitor, or vehicle control, and administration continues throughout the study. For this experiment, the animals are followed for three or five days after retinal detachment. At the end of this period, animals are sacrificed and their eyes are removed for either protein isolation or immunohistochemistry. Fellow eyes are used as controls. Western blot analysis is used to determine levels of retinal calcineurin and calcineurin cleavage products. Six animals per group are used.
Retinal Detachment Model. […]

caspase 1 = biological target: T1, caspase 1 (Homo sapiens, UniProt P29466); conditions: cited from earlier work
T1 sequence (P29466 120-297 limits assumed): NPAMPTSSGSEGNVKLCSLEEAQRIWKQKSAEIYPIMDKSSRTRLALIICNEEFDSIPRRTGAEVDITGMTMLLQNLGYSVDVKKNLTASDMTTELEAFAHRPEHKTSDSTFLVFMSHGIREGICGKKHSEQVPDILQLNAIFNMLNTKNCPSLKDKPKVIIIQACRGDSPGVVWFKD
T1 sequence (P29466 317-404 limits assumed): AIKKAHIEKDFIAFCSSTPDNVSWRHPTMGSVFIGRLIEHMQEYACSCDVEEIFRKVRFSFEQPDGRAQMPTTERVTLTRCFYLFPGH

caspase 7 = biological target: T2, caspase 7 (Homo sapiens, UniProt P55210); conditions: cited from earlier work
T2 sequence (P55210 24-198 limits assumed): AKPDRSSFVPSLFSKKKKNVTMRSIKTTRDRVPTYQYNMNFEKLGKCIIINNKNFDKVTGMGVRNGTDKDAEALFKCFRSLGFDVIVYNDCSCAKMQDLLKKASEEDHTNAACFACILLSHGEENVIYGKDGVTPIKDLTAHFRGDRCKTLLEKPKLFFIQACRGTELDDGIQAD
T2 sequence (P55210 207-303 limits assumed): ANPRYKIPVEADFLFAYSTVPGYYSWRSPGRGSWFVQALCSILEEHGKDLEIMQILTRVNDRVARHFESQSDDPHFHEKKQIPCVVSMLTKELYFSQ

caspase 3 = biological target: T3, caspase 3 (Homo sapiens, UniProt P42574); conditions: cited from earlier work
T3 sequence (P42574 29-175 limits assumed): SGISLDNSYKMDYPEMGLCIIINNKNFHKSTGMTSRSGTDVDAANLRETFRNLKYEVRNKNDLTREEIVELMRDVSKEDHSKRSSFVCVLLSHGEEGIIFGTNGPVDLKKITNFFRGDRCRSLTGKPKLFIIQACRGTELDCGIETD
T3 sequence (P42574 176-277 limits assumed): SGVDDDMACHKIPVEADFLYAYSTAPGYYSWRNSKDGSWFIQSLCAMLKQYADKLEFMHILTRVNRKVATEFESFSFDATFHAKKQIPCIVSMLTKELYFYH

caspase 4 = biological target: T4, caspase 4 (Homo sapiens, UniProt P49662); conditions: cited from earlier work
T4 sequence (P49662 81-270 limits assumed): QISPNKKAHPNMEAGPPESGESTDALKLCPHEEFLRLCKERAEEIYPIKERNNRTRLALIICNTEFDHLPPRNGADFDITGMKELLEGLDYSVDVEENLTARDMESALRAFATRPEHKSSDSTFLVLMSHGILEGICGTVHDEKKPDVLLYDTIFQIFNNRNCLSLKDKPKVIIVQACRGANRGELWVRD
T4 sequence (P49662 290-377 limits assumed): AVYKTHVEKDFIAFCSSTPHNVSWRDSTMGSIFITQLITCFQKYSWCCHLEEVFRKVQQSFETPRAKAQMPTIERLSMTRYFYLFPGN

photoreceptor cells [3] = test: Caspase inhibitor injected into region of retinal detachment, TUNEL staining (Example 2); type: in vivo, Brown-Norway rats; conditions: 25 μl of 0.2, 2 or 20 mM inhibitor in DMSO into region of detachment; 72 hours; relative to untreated eyes
Experimental: The caspase inhibitor, Z-Val-Ala-Asp-fluoromethylketone is dissolved in dimethyl sulfoxide (DMSO) to give the final concentrations of 0.2 mM, 2 mM, and 20 mM. After creating the retinotomy with the subretinal injector, a small amount of Healon® sodium hyaluronate is injected in the subretinal space so as to elevate the retina. After retinal elevation, a Hamilton syringe with a 33 gauge needle is introduced through the retinotomy site, and 25 μl of inhibitor is injected into the region of detachment. About 25 minutes later, Healon® sodium hyaluronate is injected, via the same retinotomy site, to maintain the retinal detachment. Healon® sodium hyaluronate is injected until resistance is detected.
Only the right eyes of rats are used in evaluating the role of the Z-VAD-FMK inhibitor. The left eyes serve as the controls. Five animals are used for each concentration of inhibitor (namely, no inhibitor, 0.2 mM inhibitor, 2 mM inhibitor, and 20 mM inhibitor). For the no inhibitor control, 25 μl of DMSO is injected into the region of detachment followed by Healon® sodium hyaluronate.
After 72 hours, the eyes are enucleated and the rats euthanized. The enucleated eyes are paraffin embedded as described in Example 1. Then, 6 μm sections from the posterior segments are analyzed by TUNEL staining as described in Example 1.

## C=CC[C@@H]1/C=C(\C)C[C@H](C)C[C@H](OC)[C@H]2O[C@@](O)(C(=O)C(=O)N3CCCC[C@H]3C(=O)O[C@H](/C(C)=C/[C@@H]3CC[C@@H](O)[C@H](OC)C3)[C@H](C)[C@@H](O)CC1=O)[C@H](C)C[C@@H]2OC [FK506, FK506 (tacrolimus)]
Photoreceptor cells [1]; FK506 5 mg/kg/day by gastric gavage, from one day prior to detachment, eyes enucleated 72 hours after retinal detachment, n=6
  TUNEL-positive cells (mean±SD): 130.13±54.3
Photoreceptor cells [1]; rat, in vivo, 5 mg/kg/day
  morphological signs of toxicity in the eyes: no morphological signs of toxicity
Photoreceptor cells [1]; treated group vs PBS control, 72 hours after detachment, p<0.05
  reduction in the mean number of TUNEL-positive cells: 35%

## Ac-Leu-Leu-Met-H (aldehyde) [ALLM]
[2]; ALLM 20 mg/kg/day intraperitoneal, three or five days after retinal detachment
  levels of retinal calcineurin and calcineurin cleavage products: inhibition of the calpain-mediated cleavage pathway
[2]; treatment with ALLM in experimental retinal detachment
  photoreceptor cell death: protect photoreceptor cells from death

## Ac-Tyr-Val-Ala-Asp-aldehyde (SEQ ID NO: 7)
Caspase 1
  Ki: 10 nM
Caspase 7
  Ki: ≥ 50000 nM
Caspase 3
  Ki: ≥ 50000 nM
Caspase 4
  Ki: 10 nM

## Z-Val-Ala-Asp-fluoromethylketone
Caspase 1
  inhibition of caspase 1: inhibits
Photoreceptor cells [3]
  TUNEL-positive photoreceptor cells in the region of retinal detachment: fewer photoreceptor cells in the region of retinal detachment that stain TUNEL-positive
Caspase 7
  inhibition of caspase 7: inhibits
Caspase 3
  inhibition of caspase 3: inhibits
Caspase 4
  inhibition of caspase 4: inhibits
